From patent US9376675B2, “Method for preserving components of pancreatic juice in a sample, and kit for preserving components of pancreatic juice in a sample” (priority 2012, dated 2016)

Assays:
[1] = test system: Pancreatin (activated pancreatic enzyme); assay: Protease activity of pancreatin solution (pseudo artificial pancreatic juice), EnzCheck Protease Assay Kit with fluorescently-labeled casein; format: biochemical, pig; details: final concentration within range recommended by manufacturers; 37° C. for 2 hours; Ex/Em=485/535 nm
Experimental: A protease inhibitor screen was performed to find an inhibitor targeting a serine protease and having a high inhibitory effect against pancreatic juice. The protease inhibitors used were aprotinin (product of Roche), leupeptin (product of Roche), PMSF (product of Roche), AEBSF (product of Roche), p-APMSF (product of SIGMA), camostat mesilate (Foipan: product of Wako Pure Chemical Industries), gabexate mesilate (FOY: product of Wako Pure Chemical Industries), TLCK (product of SIGMA), and TPCK (product of SIGMA). It is to be noted that TPCK is an amino acid chloromethyl ketone having inhibitory activity against chymotrypsin but having no inhibitory activity against trypsin.
“Pancreatin”, a digestive enzyme prepared from the pig pancreas in which a pancreatic enzyme was present in activated form was used as pseudo artificial pancreatic juice. After addition of protease inhibitors in an amount so that the final concentration thereof would fall within a concentration range recommended by the manufacturers of the inhibitors, the protease activity was measured. The protease activity was measured using EnzCheck Protease Assay Kits (product of Molecular Probes). Described specifically, fluorescently-labeled casein attached to a kit was added to a pancreatin solution containing each protease inhibitor. After incubation at 37° C. for 2 hours, the amount of fluorescence was measured at a fluorescence wavelength of Ex/Em=485/535 nm. As a control, the protease activity of a sample solution (containing no inhibitor) obtained by directly adding fluorescently-labeled casein to pancreatin was measured.
The amount of fluorescence plotted along the ordinate represents the amount of degraded casein and it was approximated as the value of protease activity. The protease inhibitors contained respectively in the pancreatin solutions and final concentrations thereof are plotted along the abscissa. […] These inhibitors are each a sulfonyl fluoride-containing sulfone-based compound.

[2] = test system: S100P in human pancreatic juice specimens; assay: Room temperature storage stability of S100P in human clinical pancreatic juice specimens versus freeze storage, S100P ELISA (Example 3); details: seven human clinical specimens; 25° C. for 16 hours; AEBSF 4 mM, PMSF 1 mM
Experimental: With a view to improving the storage performance of pancreatic proteins further, it was studied whether the storage stability of S100P was influenced by the combined use of the sulfonyl fluoride-containing sulfone-based compound and TLCK, that is, another […] compound. Seven human clinical specimens were used.
Described specifically, sample solutions were prepared as follows: (1) Sample Solution 1: AEBSF, obtained by adding AEBSF (final concentration: 4 mM) to the human clinical specimens. (2) Sample Solution 2: AEBSF+PMSF, obtained by adding AEBSF (final concentration: 4 mM) and PMSF (final concentration: 1 mM) to the human clinical specimens. (3) Sample Solution 3: AEBSF+PMSF+Aprotinin, obtained by adding AEBSF (final concentration: 4 mM), PMSF (final concentration: 1 mM) and Aprotinin (final concentration: 3 μM) to the human clinical specimens. […]
The concentration of S100P is plotted along the ordinate, while Sample Solutions 1 to 5 (“AEBSF”, “AEBSF+PMSF”, “AEBSF+PMSF+Aprotinin”, “AEBSF+PMSF+TPCK”, and “AEBSF+PMSF+TLCK” in the graph) of the human pancreatic juice specimens 1 to 7 are plotted along the abscissa. […] As a result, in the sample solutions after frozen storage, S100P was detected, though varying in amount, from all the human pancreatic juice specimens irrespective of the kind of the protease inhibitor added. […]

[3] = test system: S100P in human pancreatic juice specimens 1 and 2; assay: Room temperature storage stability of added S100P standard preparation in human pancreatic juice specimens 1 and 2, S100P ELISA (Example 4); details: 25 ng/mL S100P standard added (exogenous), 25° C. for 16 hours, AEBSF 4 mM, PMSF 1 mM, TLCK 1 mM
Experimental: An effect of a protease inhibitor for storage stability of S100P in a pseudo artificial pancreatic juice and that for storage stability of S100P in a human clinical specimen were compared. As a S100P-containing pseudo artificial pancreatic juice, a solution obtained by adding S100P (standard preparation) to a pancreatin solution to give a concentration of 25 ng/mL was used.
More specifically, sample solutions were prepared as follows: (1) Sample Solution 1: containing no inhibitor, obtained by mixing 25 ng/mL of an S100P (standard preparation) solution with the two human clinical specimens (human pancreatic juice specimens 1 and 2) used in Example 3 and the pseudo artificial pancreatic juice. […]
The concentration of S100P is plotted along the ordinate, while Sample Solutions 1 to 4 using the human pancreatic juice specimens 1 and 2 and the S100P-containing pseudo artificial pancreatic juice (“Without inhibitor”, “AEBSF”, “AEBSF+PMSF”, and “AEBSF+PMSF+TLCK” in the graph) are plotted along the abscissa. […] As a result, in the sample solutions after freeze storage, S100P was detected from both the human pancreatic juice specimen and the pancreatin solution. On the other hand, with regard to the sample solutions after room temperature storage, no S100P was detected from the pancreatin solutions irrespective of the presence or absence or the kind of the protease inhibitor.

[4] = test system: S100P in human clinical pancreatic juice specimens; assay: Room temperature storage stability of added S100P standard preparation in human clinical pancreatic juice specimens, S100P ELISA (Example 2); details: 25 ng/mL S100P standard added; four human clinical pancreatic juice specimens; 25° C. for 16 hours; AEBSF 4 mM, PMSF 1 mM
Description: While attention was paid to the sulfone-based compounds found to have a high inhibitory effect against digestive enzymes in pancreatic juice in Example 1, the effect of the various sulfone-based compounds on the room temperature stability of S100P (calcium-binding protein) known as a marker protein of pancreatic cancer was studied. This means that by using four human clinical pancreatic juice specimens, whether the concentration of S100P changed or not after addition of a S100P protein standard preparation was studied before and after room temperature storage.
Described specifically, sample solutions were prepared as follows: (1) Sample Solution 1: containing no inhibitor, obtained by mixing 25 ng/mL of an S100P (standard preparation) solution with the human clinical specimens, respectively. (2) Sample Solution 2: AEBSF, obtained by adding AEBSF (final concentration: 4 mM) to Sample Solution 1. […] Then, S100P was detected using CircuLex S100P ELISA Kit (product of Cyclex, Catalogue Number: CY-8060) from solutions obtained by carrying out 10-fold dilution of the sample solutions with a buffer attached to CircuLex S100P ELISA Kit, respectively. As a control, S100P was detected similarly from Sample Solution 1 immediately after preservation (that is, before room temperature storage). […]

SMILES | inhibitory effect on protease activity (amount of fluorescence = degraded casein) of pancreatin solution [1] | S100P detection amount after room temperature storage compared with freeze storage [2] | detection amount of S100P after room temperature storage [3] | S100P concentration after room temperature storage [4]
Cl.N=C(N)c1ccc(CS(=O)(=O)F)cc1 [p-APMSF, p-amidinophenylmethanesulfonyl fluoride hydrochloride] | markedly high inhibitory effect | – | – | –
NCCc1ccc(S(=O)(=O)F)cc1 [AEBSF, 4-(2-aminoethyl)-benzenesulfonyl fluoride] | markedly high inhibitory effect | the detection amount was very small compared with that after freeze storage | detection amount of S100P is greater | S100P was detected from any of the pancreatic juice specimens
Cc1ccc(S(=O)(=O)N[C@@H](CCCCN)C(=O)CCl)cc1 [TLCK, N-a-tosyl-L-lysine chloromethyl ketone] | not effective inhibitors by themselves | – | – | –
O=S(=O)(F)Cc1ccccc1 [PMSF, phenylmethylsulfonyl fluoride] | markedly high inhibitory effect | – | – | –
